The values that follow are results of earlier work, collected in the CATMoS acute toxicity set (Mansouri et al. 2021).

Where “and” joins values, the source holds several entries; their conditions need not be identical. Equal values may be shown once.

The data set can be described thus: rat acute oral toxicity. The note with it: in vivo.
Turning to `O=C(Cl)c1ccccc1C(F)(F)F`, the LD50 (usually the dose at which mortality reaches 50%) is 8200 mg/kg.
With `CCC1NC(=O)C2C(Cl)C(Cl)CN2C(=O)C(CO)NC(=O)CC(c2ccccc2)NC(=O)C(CO)NC1=O` (stereo not drawn), the LD50 was 5 mg/kg.
On to `COC1OC(CNC(=O)N(CCCl)N=O)C(O)C(O)C1O` (stereo not drawn), for which the LD50 was 46.4 mg/kg.
In the case of `O=CNC(Nc1ccc(Cl)c(Cl)c1)C(Cl)(Cl)Cl` (stereo not drawn), the LD50 was 2500 mg/kg.
In the case of `CCCCOCCCC`, the LD50 was 7400 mg/kg.
Consider `CC(O)Cn1cnc2c1c(=O)n(C)c(=O)n2C` (stereo not drawn), for which the LD50 was 460 mg/kg.
Take `C=C(C)C(=O)OCCO`: the LD50 is 5620 mg/kg.
On to `CC(C)C1=Nc2ccccc2C1=C(N)c1cccnc1`, for which the LD50 was 350 mg/kg.
`CC1=CC(=O)C(C)=C(C)C1=O`: the LD50 is 200 mg/kg.
Take `CCOc1ccc(C(=O)COC(=O)CCC(=O)O)c2ccccc12`: the LD50 is 3500 mg/kg.
On to `CC(C)c1nnc(NS(=O)(=O)c2ccc(N)cc2)s1`, for which the LD50 is 3940 mg/kg.
As for `CCCc1ccc2c(c1)OCO2`, the LD50 is 2260 mg/kg.
For the compound `CNC(=O)c1cnn(C(C)(C)C)c1C#N`, the LD50 was 392 mg/kg.
In the case of `CCOP(=S)(OCC)SC(=O)CN(C)C(N)=O`, the LD50 was 16 mg/kg.
`Cc1cccc(N2CC(CO)OC2=O)c1` (stereo not drawn): the LD50 is 1220 mg/kg.
For `c1ccc(-n2cnnc2)cc1`, the LD50 was 134 mg/kg.
Take `CC(C)(O)C(C)(O)c1ccc(Cl)cc1` (stereo not drawn): the LD50 was 832 mg/kg.
Consider `C1CN2CCN1CC2`, for which the LD50 was 1700 mg/kg.
`COP(=O)(OC)Sc1ccc([N+](=O)[O-])cc1`: the LD50 was 42.9 mg/kg.
For `Cc1cccc(NC(N)=O)c1`, the LD50 is 1330 mg/kg.
In the case of `CN(C)P(=O)(N(C)C)N(C)C`, the LD50 is 2650 mg/kg.
For the compound `CCCCCCCCCC=CC(=O)OC(=O)C=CCCCCCCCCC`, the LD50 is 3800 mg/kg.
For `CC1CNC(C)CN1` (stereo not drawn), the LD50 is 3160 mg/kg.
As to `C=COC=O`, the LD50 is 2820 mg/kg.
Take `COP(=O)(OC)OC(Cl)C(Cl)(Cl)Cl` (stereo not drawn): the LD50 was 14 mg/kg.
Regarding `CCC(C)c1ccccc1OC(=O)NC` (stereo not drawn), the LD50 was 350 mg/kg.
In the case of `Cc1ccc(/C(=C\CN2CCCC2)c2ccccn2)cc1`, the LD50 is 840 mg/kg.
Take `CCOC(=O)CSP(=O)(OC)OC`: the LD50 is 385 mg/kg.
For the compound `O=C(Nc1ccccc1)c1ccccc1I`, the LD50 was 6400 mg/kg.
For the compound `Cc1ccccc1C(C)C`, the LD50 is 2130 mg/kg.
Take `Cc1ccc2[nH]nnc2c1`: the LD50 was 1600 mg/kg.
Regarding `CC(C(=O)Nc1cc(-c2ccccc2)nn1-c1ccccc1)N(C)C` (stereo not drawn), the LD50 was 815 mg/kg.
Consider `O=C(CS)OCCCCOC(=O)CS`, for which the LD50 was 405 mg/kg.
For `CN1CCC(=C2c3ccccc3CC(=O)c3sccc32)CC1`, the LD50 is 360 mg/kg.
For the compound `CCCC(=O)OC(=O)CCC`, the LD50 is 8790 mg/kg.
Turning to `O=[N+]([O-])c1ccc(NS(=O)(=O)c2ccc(Cl)c(C(F)(F)F)c2)c(Cl)c1`, the LD50 is 132 mg/kg.
Take `CC(C)OP(=S)(CCl)Sc1ccc(Cl)cc1` (stereo not drawn): the LD50 was 26 mg/kg.
`Cc1[nH]c(=O)n(C(C)C)c(=O)c1Br`: the LD50 was 3400 mg/kg.
With `O=C(O)c1cc(/N=N/c2ccc(S(=O)(=O)Nc3ccccn3)cc2)ccc1O`, the LD50 was 15600 mg/kg.
Turning to `COc1cc(C)c2[nH]c(C)c(CCN3CC4CCC(CC4)C3)c2c1`, the 50% lethal dose (LD50) was 787 mg/kg.
As to `Cc1cc(OCCO)cc(C)c1Cl`, the LD50 is 3800 mg/kg.
Consider `c1cc2c(cc1C1CCCCC1)c1c3n2CCNC3CCC1` (stereo not drawn), for which the LD50 is 3070 mg/kg.
On to `O=C(COc1ccc(Cl)cc1)N1CCN(Cc2ccc3c(c2)OCO3)CC1`, for which the median lethal dose (LD50) was 4480 mg/kg.
In the case of `CCC(C)(C)c1ccc2c(c1)C(=O)c1ccccc1C2=O`, the LD50 is 1600 mg/kg.
Take `CN1CCC(CN2c3ccccc3Sc3ccccc32)C1` (stereo not drawn): the LD50 is 260 mg/kg and 162 mg/kg.
For the compound `O=[N+]([O-])c1ccc([C@@H](O)[C@@H]2COC(C(Cl)Cl)=N2)cc1`, the LD50 was 6000 mg/kg.
For the compound `CNC(=O)Oc1ccccc1Cl`, the LD50 was 648 mg/kg.
For `CCSSCC`, the LD50 is 2030 mg/kg.
In the case of `CCN(CC)CCCN(c1ccccc1)C1Cc2ccccc2C1`, the LD50 is 525 mg/kg.
In the case of `Cc1ccn(C(=O)NCCCCNC(=O)n2ccc(C)n2)n1`, the LD50 was 4600 mg/kg.
As for `NC(CCN1CCCCCC1)=NO`, the LD50 is 500 mg/kg.
Take `CC(=O)Nc1cccc2c3c([nH]c12)CCCC3`: the LD50 was 3860 mg/kg.
In the case of `CC(=O)CC(=O)Nc1ccccc1`, the LD50 was 2450 mg/kg.
For `C1=CC=CCC=C1`, the LD50 is 57 mg/kg.
Take `CCN1CC(CCN2CCOCC2)C(c2ccccc2)(c2ccccc2)C1=O` (stereo not drawn): the LD50 was 261 mg/kg.
In the case of `CSC(C)=NOC(=O)N(C)SN(C)C(=O)Oc1ccc(OC(=O)N(C)SN(C)C(=O)ON=C(C)SC)cc1`, the LD50 was 453 mg/kg.
Take `N#CS/C=C/SC#N`: the LD50 was 77 mg/kg.
Regarding `CS(=O)(=O)OCCCNCCCOS(C)(=O)=O`, the LD50 was 108 mg/kg.
For the compound `CC(C)Cc1ccc(C(C)C(=O)O)cc1` (stereo not drawn), the LD50 was 636 mg/kg.
Consider `COP(=O)(SC)SC`, for which the LD50 is 26 mg/kg.
Take `COc1cc(C(=O)NC2CCCNC2)cc(OC)c1OC` (stereo not drawn): the LD50 is 2100 mg/kg.
Turning to `CCCCOC(=O)/C=C/C(=O)OCCCC`, the LD50 is 8530 mg/kg.
Consider `O=C(Cc1c[nH]c2ccccc12)NN1C(=O)CSC1=S`, for which the LD50 is 432 mg/kg.
